Reference: PMC6018746, “Activation of the p53-MDM4 regulatory axis defines the anti-tumour response to PRMT5 inhibition through its role in regulating cellular splicing” (Scientific Reports, 2018)

Columns and labels:
[1] = system: SDMA in a panel of breast and lymphoma cell lines; assay: SDMA EC50 in breast and lymphoma cell line panel; assay type: cell-based; settings: Homo sapiens; all cell lines of the panel; read-out: SDMA EC50 range
Description: SDMA ELISA was performed on homogenized cells and frozen tumour lysates. Fluorescence intensity generated by addition of Luminata Forte (Millipore #WBKUF0500) substrate was measured on a PerkinElmer Envision plate reader.
Cells were seeded in optical bottom cell culture plates and targets were probed with fluorescent secondary antibodies and DAPI stain. Quantification of nuclear SDMA and SMD3 levels was performed with a Molecular Devices […] high-content fluorescence imager and image analysis was performed with ImageExpress software.

[2] = system: p53 wild-type Z-138 xenograft model; assay: Z-138 xenograft efficacy; assay type: in vivo, mouse; settings: 21 days
[3] = system: p53 mutant MCL xenograft model, REC-1; assay: REC-1 xenograft efficacy; assay type: in vivo, mouse; settings: 100 mg/kg BID
Excerpt: We also observed an increase in the expression of p53 target genes including p21/CDKN1 (Supplementary Figure S7B), confirming induction of p53 activity.

[4] = biological target: panel containing 20 methyltransferases including PRMT9; assay: methyltransferase selectivity panel; assay type: biochemical; settings: other methyltransferases including PRMT9, substrates near KM^app
Description: (A) Plots indicating the mode of inhibition against
IC50 values are graphed as a function of substrate concentration relative to Kmapp
(top panel, SAM; bottom panel, H4 1-21 peptide). Data points (closed vs. open
circles) represent two independent experiments. (B) IC50 values plotted as a
represent data generated using 0.8 nM PRMT5/MEP50 while closed circles
represent data with 4 nM PRMT5/MEP50 (top panel).
following a 60 minute Enz:SAM:Inh preincubation fit to a 3-parameter dose-
Enz:SAM:Inh preincubation. IC50 values were determined by fitting inhibition
data to a 3-parameter dose-response equation. Ki*app values were calculated
from IC50 values using the Cheng-Prusoff equation for a competitive inhibitor.

[5] = system: MDM4 alternative splicing in Z-138 cells; assay: MDM4 splicing RT-PCR; assay type: cell-based, human; settings: 3-day exposure, 1.6 nM to 1 μM tested
Description: We confirmed PRMT5 inhibitor-induced alternative splicing of MDM4 from the full-length isoform (MDM4-FL) to the short isoform (MDM4-S) at both treatment concentrations, with the most robust changes after 3 days of compound exposure.
RNA was isolated from cell pellets as described above and was converted to cDNA using ABI High Capacity Reverse Transcription Reagents (4274966) per manufacturer’s instructions and PCR was performed as described elsewhere. Reaction products were separated using agarose ethidium bromide gel electrophoresis and visualized using a Bio-Rad VersaDoc Model 5000 imaging system.

SMILES | EC50 [1] | tumour growth inhibition (TGI) ([2]; 25 mg/kg BID oral) | tumour growth inhibition (TGI) ([2]; 50 mg/kg BID oral) | tumour growth inhibition (TGI) ([2]; 100 mg/kg BID oral) | TGI [3] | IC50 [4] | concentration at which MDM4 alternative splicing was evident [5]
CC(=O)N1CCC(Nc2cc(C(=O)NC[C@H](O)CN3CCc4ccccc4C3)ncn2)CC1 [GSK3326595] | 2 to 160 nM | 52.1% | 88.03% | 106.05% | 55% | > 40000 nM | –
O=C(NC[C@H](O)CN1CCc2ccccc2C1)c1ccnc(NC2CCC2)c1 [GSK3203591] | – | – | – | – | – | – | ≥ 8 nM
